The record followed here is PMC5218480 (PLoS ONE, 2017).

Each structure is given as a SMILES string.

This assay deals with MV-4-11 cells. Nature of the assay: Gene expression microarray analysis (Affymetrix PrimeView) and GSEA. The format is cell-based, human. Further details: RFU PODN (11730768_x_at) / Fold change /veh PODN (11730768_x_at) / RFU LINC00158 (11744669_a_at) / Fold change /veh LINC00158 (11744669_a_at) / RFU DUSP10 (11751237_a_at) / Fold change /veh DUSP10 (11751237_a_at) / RFU ID3 (11757404_x_at) / Fold change /veh ID3 (11757404_x_at) / RFU PLEKHG5 (11737974_s_at) / Fold change /veh PLEKHG5 (11737974_s_at) / RFU LRRC4B (11730491_at) / Fold change /veh LRRC4B (11730491_at) / RFU GIMAP4 (11747438_a_at) / Fold change /veh GIMAP4 (11747438_a_at) / RFU KRT8 (11758183_x_at) / Fold change /veh KRT8 (11758183_x_at) / RFU CNN1 (11734310_a_at) / Fold change /veh CNN1 (11734310_a_at) / RFU VPS37D (11726825_at) / Fold change /veh VPS37D (11726825_at) / RFU C10orf10 (11716522_x_at) / Fold change /veh C10orf10 (11716522_x_at) / RFU KIR2DL2 /// KIR2DL4 /// KIR2DL5A /// KIR2DL5B /// KIR2DS1 /// KIR2DS2 /// KIR2DS3 /// KIR2DS4 /// KIR3DL3 /// KIR3DL3 /// KIR3DS1 (11738374_at) / Fold change /veh KIR2DL2 /// KIR2DL4 /// KIR2DL5A /// KIR2DL5B /// KIR2DS1 /// KIR2DS2 /// KIR2DS3 /// KIR2DS4 /// KIR3DL3 /// KIR3DL3 /// KIR3DS1 (11738374_at) / RFU C1QL1 (11718748_at) / Fold change /veh C1QL1 (11718748_at) / RFU TMPRSS4 (11747572_a_at) / Fold change /veh TMPRSS4 (11747572_a_at) / RFU HAMP (11756126_x_at) / Fold change /veh HAMP (11756126_x_at) / RFU RNFT2 (11725882_a_at) / Fold change /veh RNFT2 (11725882_a_at) / RFU NR4A2 (11747474_a_at) / Fold change /veh NR4A2 (11747474_a_at) / RFU ABCC12 (11746883_a_at) / Fold change /veh ABCC12 (11746883_a_at) / RFU TMEM136 (11760407_x_at) / Fold change /veh TMEM136 (11760407_x_at) / RFU CLDN22 /// WWC2 (11732394_at) / Fold change /veh CLDN22 /// WWC2 (11732394_at) / RFU HLA-DPB1 (11760878_x_at) / Fold change /veh HLA-DPB1 (11760878_x_at) / RFU SPINT1 (11716480_a_at) / Fold change /veh SPINT1 (11716480_a_at) / RFU GAP43 (11754022_s_at) / Fold change /veh GAP43 (11754022_s_at) / RFU A4GNT (11735810_at) / Fold change /veh A4GNT (11735810_at) / RFU PRB3 (11715151_x_at) / Fold change /veh PRB3 (11715151_x_at) / RFU TUBB4B (11761932_at) / Fold change /veh TUBB4B (11761932_at) / RFU CAPN14 (11732068_a_at) / Fold change /veh CAPN14 (11732068_a_at) / RFU TMCC2 (11721928_a_at) / Fold change /veh TMCC2 (11721928_a_at) / RFU IRGQ (11745062_a_at) / Fold change /veh IRGQ (11745062_a_at) / RFU FAM174B (11720279_a_at) / Fold change /veh FAM174B (11720279_a_at) / RFU TMPRSS4 (11748680_a_at) / Fold change /veh TMPRSS4 (11748680_a_at) / RFU FAM212B (11763350_a_at) / Fold change /veh FAM212B (11763350_a_at) / RFU PLEKHG5 (11743358_a_at) / Fold change /veh PLEKHG5 (11743358_a_at) / RFU ZSCAN30 (11745921_a_at) / Fold change /veh ZSCAN30 (11745921_a_at) / RFU CMKLR1 (11741424_a_at) / Fold change /veh CMKLR1 (11741424_a_at) / RFU LOC101060620 /// MAPK8IP1 (11723275_at) / Fold change /veh LOC101060620 /// MAPK8IP1 (11723275_at) / RFU SPTSSB (11747773_x_at) / Fold change /veh SPTSSB (11747773_x_at) / RFU PRSS12 (11739890_at) / Fold change /veh PRSS12 (11739890_at) / RFU BIN1 (11741810_x_at) / Fold change /veh BIN1 (11741810_x_at) / RFU WNT11 (11732464_a_at) / Fold change /veh WNT11 (11732464_a_at) / RFU C10orf10 (11716521_a_at) / Fold change /veh C10orf10 (11716521_a_at) / RFU C5orf56 (11738089_at) / Fold change /veh C5orf56 (11738089_at) / RFU CYB561 (11721691_x_at) / Fold change /veh CYB561 (11721691_x_at) / RFU ANKRD19P (11752326_a_at) / Fold change /veh ANKRD19P (11752326_a_at) / RFU OR2T12 /// OR2T33 /// OR2T8 (11738714_s_at) / Fold change /veh OR2T12 /// OR2T33 /// OR2T8 (11738714_s_at) / RFU VCAN (11748164_a_at) / Fold change /veh VCAN (11748164_a_at) / RFU JSRP1 (11732532_at) / Fold change /veh JSRP1 (11732532_at) / RFU KRTAP10-11 (11738290_x_at) / Fold change /veh KRTAP10-11 (11738290_x_at) / RFU MYO3A (11730013_a_at) / Fold change /veh MYO3A (11730013_a_at) / RFU EBF3 (11725865_a_at) / Fold change /veh EBF3 (11725865_a_at) / RFU CAMK2N1 (11719241_x_at) / Fold change /veh CAMK2N1 (11719241_x_at) / RFU C5orf56 (11738088_a_at) / Fold change /veh C5orf56 (11738088_a_at) / RFU OLFML3 (11715873_a_at) / Fold change /veh OLFML3 (11715873_a_at) / RFU LOC100653217 /// NTM (11731650_a_at) / Fold change /veh LOC100653217 /// NTM (11731650_a_at) / RFU MAPK11 (11762145_a_at) / Fold change /veh MAPK11 (11762145_a_at) / RFU FIZ1 (11724087_x_at) / Fold change /veh FIZ1 (11724087_x_at) / RFU OASL (11726364_x_at) / Fold change /veh OASL (11726364_x_at) / RFU SOX15 (11748057_x_at) / Fold change /veh SOX15 (11748057_x_at) / RFU CD79A (11719716_a_at) / Fold change /veh CD79A (11719716_a_at) / RFU HIST1H1D (11736915_at) / Fold change /veh HIST1H1D (11736915_at) / RFU CASKIN2 (11723855_a_at) / Fold change /veh CASKIN2 (11723855_a_at) / RFU LOC730098 (11760151_x_at) / Fold change /veh LOC730098 (11760151_x_at) / RFU OR4N2 (11742367_at) / Fold change /veh OR4N2 (11742367_at) / RFU PRRT2 (11749266_a_at) / Fold change /veh PRRT2 (11749266_a_at) / RFU SNX32 (11753110_a_at) / Fold change /veh SNX32 (11753110_a_at) / RFU CDHR5 (11726645_a_at) / Fold change /veh CDHR5 (11726645_a_at) / RFU RCAN1 (11760418_a_at) / Fold change /veh RCAN1 (11760418_a_at) / RFU FAM167A (11723789_a_at) / Fold change /veh FAM167A (11723789_a_at) / RFU FAM26E (11764081_at) / Fold change /veh FAM26E (11764081_at) / RFU ISYNA1 (11749810_s_at) / Fold change /veh ISYNA1 (11749810_s_at) / RFU ACY1 (11761880_at) / Fold change /veh ACY1 (11761880_at) / RFU 11764098_at / Fold change /veh 11764098_at / RFU SAMD14 (11745864_x_at) / Fold change /veh SAMD14 (11745864_x_at) / RFU NPB (11741838_a_at) / Fold change /veh NPB (11741838_a_at) / RFU TMPRSS6 (11731388_a_at) / Fold change /veh TMPRSS6 (11731388_a_at) / RFU KRTAP10-2 (11738614_at) / Fold change /veh KRTAP10-2 (11738614_at) / RFU ARHGAP8 /// PRR5-ARHGAP8 (11727945_x_at) / Fold change /veh ARHGAP8 /// PRR5-ARHGAP8 (11727945_x_at) / RFU KRTAP5-7 /// NADSYN1 (11734609_at) / Fold change /veh KRTAP5-7 /// NADSYN1 (11734609_at) / RFU RASL12 (11751679_a_at) / Fold change /veh RASL12 (11751679_a_at) / RFU CDKN2B (11736163_a_at) / Fold change /veh CDKN2B (11736163_a_at) / RFU PRF1 (11729649_at) / Fold change /veh PRF1 (11729649_at) / RFU, ZNF638 /// ZNF638-IT1 / Fold change vs veh, ZNF638 /// ZNF638-IT1 / RFU, PANK3 / Fold change vs veh, PANK3 / RFU, SH3YL1 / Fold change vs veh, SH3YL1 / RFU, ZEB2 / Fold change vs veh, ZEB2 / RFU, NRIP1 / Fold change vs veh, NRIP1 / RFU, PTTG1IP / Fold change vs veh, PTTG1IP / RFU, CAPN2 / Fold change vs veh, CAPN2 / RFU, MED14 / Fold change vs veh, MED14 / RFU, SNORA58 / Fold change vs veh, SNORA58 / RFU, C1orf63 / Fold change vs veh, C1orf63 / RFU, LRRFIP1 / Fold change vs veh, LRRFIP1 / RFU, NDUFAF7 / Fold change vs veh, NDUFAF7 / RFU, SLC12A2 / Fold change vs veh, SLC12A2 / RFU, IBTK / Fold change vs veh, IBTK / RFU, ESF1 / Fold change vs veh, ESF1 / Fold change vs veh, TMEM50B / RFU, TAOK1 / Fold change vs veh, TAOK1 / RFU, ACBD3 / Fold change vs veh, ACBD3 / RFU, TMA16 / Fold change vs veh, TMA16 / RFU, RWDD3 / Fold change vs veh, RWDD3 / RFU, BCAT1 / Fold change vs veh, BCAT1 / RFU, EDEM3 / Fold change vs veh, EDEM3 / RFU, TMEM33 / Fold change vs veh, TMEM33 / RFU, WDR75 / Fold change vs veh, WDR75 / RFU, AHCTF1 / Fold change vs veh, AHCTF1 / RFU, TFRC / Fold change vs veh, TFRC / RFU, ZDHHC17 / Fold change vs veh, ZDHHC17 / RFU, NOM1 / Fold change vs veh, NOM1 / RFU, ARL8B / Fold change vs veh, ARL8B / RFU, ZBTB11 / Fold change vs veh, ZBTB11 / RFU, TAMM41 / Fold change vs veh, TAMM41 / RFU, KIAA1704 /// LOC100996395 / Fold change vs veh, KIAA1704 /// LOC100996395 / RFU, ING1 / Fold change vs veh, ING1 / RFU, TRMT61B / Fold change vs veh, TRMT61B / RFU, FUBP3 / Fold change vs veh, FUBP3 / RFU, TP53 / Fold change vs veh, TP53 / RFU, TNKS2 / Fold change vs veh, TNKS2 / RFU, ZFP14 / Fold change vs veh, ZFP14 / RFU, ACTR2 / Fold change vs veh, ACTR2 / RFU, PPP3R1 / Fold change vs veh, PPP3R1 / RFU, PIK3R1 / Fold change vs veh, PIK3R1 / RFU, HNRNPA1 / Fold change vs veh, HNRNPA1 / RFU, RNF170 / Fold change vs veh, RNF170 / RFU, ZNF28 / Fold change vs veh, ZNF28 / RFU, RNGTT / Fold change vs veh, RNGTT / RFU, OGT / Fold change vs veh, OGT / RFU, BRD1 / Fold change vs veh, BRD1 / RFU, MARS / Fold change vs veh, MARS / RFU, ZNF655 / Fold change vs veh, ZNF655 / RFU, FAHD1 / Fold change vs veh, FAHD1 / RFU, BDP1 / Fold change vs veh, BDP1 / RFU, LRRCC1 / Fold change vs veh, LRRCC1 / RFU, ARID1A / Fold change vs veh, ARID1A / RFU, ZNF146 / Fold change vs veh, ZNF146 / RFU, ZNF330 / Fold change vs veh, ZNF330 / RFU, GPN3 / Fold change vs veh, GPN3 / RFU, C9orf123 / Fold change vs veh, C9orf123 / RFU, N4BP2L2 / Fold change vs veh, N4BP2L2 / RFU, ARFIP1 / Fold change vs veh, ARFIP1 / RFU, FAM179B / Fold change vs veh, FAM179B / RFU, BCL10 / Fold change vs veh, BCL10 / RFU, UHRF1BP1L / Fold change vs veh, UHRF1BP1L / RFU, BET1 / Fold change vs veh, BET1 / RFU, CNOT2 / Fold change vs veh, CNOT2 / RFU, ZNF268 / Fold change vs veh, ZNF268 / Fold change vs veh, ZNF507 / RFU, DGCR2 / Fold change vs veh, DGCR2 / RFU, WDSUB1 / Fold change vs veh, WDSUB1 / Fold change vs veh, HSP90B1 /// MIR3652 / RFU, ADSS / Fold change vs veh, ADSS / RFU, GK / Fold change vs veh, GK / RFU, ZNF148 / Fold change vs veh, ZNF148 / RFU, TAF9 / Fold change vs veh, TAF9 / RFU, SLC1A5 / Fold change vs veh, SLC1A5 / RFU, SLMO2 / Fold change vs veh, SLMO2 / RFU, ABCC4 / Fold change vs veh, ABCC4 / RFU, LOC101060439 /// RAP1B / Fold change vs veh, LOC101060439 /// RAP1B / RFU, RFX7 / Fold change vs veh, RFX7 / RFU, GTPBP10 / Fold change vs veh, GTPBP10 / RFU, CNEP1R1 / Fold change vs veh, CNEP1R1 / RFU, BIVM-ERCC5 /// ERCC5 / Fold change vs veh, BIVM-ERCC5 /// ERCC5 / RFU, ILF3 / Fold change vs veh, ILF3 / RFU 11762660_at / Fold change /veh 11762660_at / RFU VCAN (11757783_s_at) / Fold change /veh VCAN (11757783_s_at) / RFU DDX43 (11728927_at) / Fold change /veh DDX43 (11728927_at) / RFU KRT8 (11758188_x_at) / Fold change /veh KRT8 (11758188_x_at) / RFU NKD1 (11759106_at) / Fold change /veh NKD1 (11759106_at) / RFU SRD5A1 (11742802_a_at) / Fold change /veh SRD5A1 (11742802_a_at) / RFU TPSAB1 /// TPSB2 (11721975_s_at) / Fold change /veh TPSAB1 /// TPSB2 (11721975_s_at) / RFU GSTM3 (11746129_a_at) / Fold change /veh GSTM3 (11746129_a_at) / RFU IL23R (11737362_x_at) / Fold change /veh IL23R (11737362_x_at) / RFU TMEM51 (11727254_a_at) / Fold change /veh TMEM51 (11727254_a_at) / RFU PIWIL2 (11732686_x_at) / Fold change /veh PIWIL2 (11732686_x_at) / RFU ORM1 (11744905_x_at) / Fold change /veh ORM1 (11744905_x_at) / RFU CCDC152 (11743942_at) / Fold change /veh CCDC152 (11743942_at) / RFU ECM1 (11717891_a_at) / Fold change /veh ECM1 (11717891_a_at) / RFU IL23R (11748794_a_at) / Fold change /veh IL23R (11748794_a_at) / RFU TNFAIP8L3 (11732012_x_at) / Fold change /veh TNFAIP8L3 (11732012_x_at) / RFU MBOAT4 (11741988_at) / Fold change /veh MBOAT4 (11741988_at) / RFU 11764193_at / Fold change /veh 11764193_at / RFU TMEM53 (11763286_at) / Fold change /veh TMEM53 (11763286_at) / RFU MAGEB2 (11727129_at) / Fold change /veh MAGEB2 (11727129_at) / RFU TMEM200A (11744735_a_at) / Fold change /veh TMEM200A (11744735_a_at) / RFU CCDC152 (11751479_a_at) / Fold change /veh CCDC152 (11751479_a_at) / RFU FAM211A (11726209_a_at) / Fold change /veh FAM211A (11726209_a_at) / RFU RGS16 (11746705_a_at) / Fold change /veh RGS16 (11746705_a_at) / RFU VCAN (11755009_s_at) / Fold change /veh VCAN (11755009_s_at) / RFU RHOB (11743442_s_at) / Fold change /veh RHOB (11743442_s_at) / RFU RGS16 (11720943_a_at) / Fold change /veh RGS16 (11720943_a_at) / RFU RGS16 (11720944_at) / Fold change /veh RGS16 (11720944_at) / RFU, VPS4B / Fold change vs veh, VPS4B / RFU, CREB1 / Fold change vs veh, CREB1 / RFU, DNAJC13 / Fold change vs veh, DNAJC13 / RFU, GNAQ / Fold change vs veh, GNAQ / RFU, CDK5R1 / Fold change vs veh, CDK5R1 / RFU, ZRANB3 / Fold change vs veh, ZRANB3 / RFU, CUL4A / Fold change vs veh, CUL4A / RFU, CCNY / Fold change vs veh, CCNY / RFU, UFL1 / Fold change vs veh, UFL1 / RFU, COG3 / Fold change vs veh, COG3 / RFU, DIAPH2 / Fold change vs veh, DIAPH2 / RFU, SKA2 / Fold change vs veh, SKA2 / RFU, AFF3 / Fold change vs veh, AFF3 / RFU, LMF1 / Fold change vs veh, LMF1 / RFU, IPO11 / Fold change vs veh, IPO11 / RFU, DFFB / Fold change vs veh, DFFB / RFU, FOXP1 / Fold change vs veh, FOXP1 / RFU, CARD8 / Fold change vs veh, CARD8 / RFU, STRN3 / Fold change vs veh, STRN3 / RFU, ADK / Fold change vs veh, ADK / RFU, RASSF2 / Fold change vs veh, RASSF2 / RFU, WIPF1 / Fold change vs veh, WIPF1 / RFU, LARP1B / Fold change vs veh, LARP1B / RFU, RASA1 / Fold change vs veh, RASA1 / RFU, RB1 / Fold change vs veh, RB1 / RFU, PPFIA1 / Fold change vs veh, PPFIA1 / RFU, MAT2A / Fold change vs veh, MAT2A / RFU, CCT5 / Fold change vs veh, CCT5 / RFU, WDR92 / Fold change vs veh, WDR92 / RFU, CUX1 / Fold change vs veh, CUX1 / RFU, TTC7A / Fold change vs veh, TTC7A / RFU, TMEM135 / Fold change vs veh, TMEM135 / RFU, DEPTOR / Fold change vs veh, DEPTOR / RFU, CPM / Fold change vs veh, CPM / RFU, DNAJB6 / Fold change vs veh, DNAJB6 / RFU, CACNA2D3 / Fold change vs veh, CACNA2D3 / RFU, DTX4 / Fold change vs veh, DTX4 / RFU, TFCP2 / Fold change vs veh, TFCP2 / RFU, GMCL1 /// GMCL1P1 / Fold change vs veh, GMCL1 /// GMCL1P1 / RFU, AEBP2 / Fold change vs veh, AEBP2 / RFU, SNHG1 /// SNORD22 /// SNORD25 /// SNORD26 /// SNORD27 /// SNORD28 /// SNORD29 /// SNORD31 / Fold change vs veh, SNHG1 /// SNORD22 /// SNORD25 /// SNORD26 /// SNORD27 /// SNORD28 /// SNORD29 /// SNORD31 / Fold change (Aza/veh), C12orf56 (ProbeSet 11735607_a_at) / Fold change (ACY-1035/veh), C12orf56 (ProbeSet 11735607_a_at) / Fold change (Aza/veh), FGFR1OP (ProbeSet 11751329_s_at) / Fold change (ACY-1035/veh), FGFR1OP (ProbeSet 11751329_s_at) / Fold change (Aza/veh), VPS36 (ProbeSet 11739960_a_at) / Fold change (ACY-1035/veh), VPS36 (ProbeSet 11739960_a_at) / RFU SYPL1 (11715823_x_at) / Fold change /veh SYPL1 (11715823_x_at) / RFU IGFBP7 (11715501_s_at) / Fold change /veh IGFBP7 (11715501_s_at) / RFU REEP3 (11722064_at) / Fold change /veh REEP3 (11722064_at) / RFU IGLL1 (11728026_x_at) / Fold change /veh IGLL1 (11728026_x_at): dose or concentration left out as unconfirmed. As to conditions: ProbeSet 11727958_a_at; LIST B.

Take `Nc1ncn([C@@H]2O[C@H](CO)[C@@H](O)[C@H]2O)c(=O)n1` [azacitidine]: the “Fold change vs veh, ING1” value is 0.99.
